pIC50: −log10 of the molar value.

The nature of experiment [1]: Inhibition of beta lactamase SHV1.
Experiment [2] can be described thus: Inhibition of beta lactamase P99.
The nature of experiment [3]: Inhibition of beta lactamase TEM1.
In experiment [4] the target is Beta-lactamase OXA-1 (Escherichia coli) (UniProt P13661). The experiment in a line: Inhibition of Escherichia coli beta lactamase OXA-1.
Sequence of Beta-lactamase OXA-1 (Escherichia coli) (P13661 whole entry): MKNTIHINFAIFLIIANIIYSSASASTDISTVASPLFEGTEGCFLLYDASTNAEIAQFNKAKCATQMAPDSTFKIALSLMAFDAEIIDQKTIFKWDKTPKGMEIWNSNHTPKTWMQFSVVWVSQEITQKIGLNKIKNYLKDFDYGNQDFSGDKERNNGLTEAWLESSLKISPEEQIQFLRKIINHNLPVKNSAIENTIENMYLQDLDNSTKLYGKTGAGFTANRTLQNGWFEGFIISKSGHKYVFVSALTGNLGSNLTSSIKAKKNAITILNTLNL

As to `C[C@]1(Cn2ccnn2)[C@H](C(=O)O)N2C(=O)C[C@H]2S1(=O)=O`, in experiment [1], the Kinact came out at 330 nM.

In the case of `C[C@]1(COC(=O)Cc2ccccc2)[C@H](C(=O)O)N2C(=O)/C(=C/c3ccccn3)[C@H]2S1(=O)=O`, the values for the pIC50 in experiment [2] and in experiment [3] were 9.00 and 7.40, respectively. In addition, the Kinact in experiment [1] was 42 nM; in experiment [4] it was 1 µM.

The values are drawn from ChEMBL document CHEMBL1156475, “Efficient inhibition of class A and class D beta-lactamases by Michaelis complexes” (J Biol Chem, 2007).
